Test results reported in patent US8592367B2, “Nodule specific medicago peptides having antimicrobial activity and pharmaceutical compositions containing the same” (priority 2009, dated 2013).
“Also recorded” adds a separate entry of the source. Like-named read-outs stand apart in the source and are kept apart here.

Columns and labels:
[1] = tested on: Rhizopus stolonifer var. stolonifer; assay: Antifungal activity in 96-well microtiter plates; format: cell-based; design: key: +++: high sensitivity, no hyphal growth; ++: medium sensitivity; +: low sensitivity; −: no effect; details: 24 h
Candida parapsilosis = assay: Antifungal activity in 96-well microtiter plates; format: cell-based; design: key: +++: high sensitivity, no hyphal growth; ++: medium sensitivity; +: low sensitivity; −: no effect; details: 24 h
Candida crusei = assay: Antifungal activity in 96-well microtiter plates; format: cell-based; design: key: +++: high sensitivity, no hyphal growth; ++: medium sensitivity; +: low sensitivity; −: no effect; details: 24 h
Aspergillus niger = assay: Antifungal activity in 96-well microtiter plates; format: cell-based; design: key: +++: high sensitivity, no hyphal growth; ++: medium sensitivity; +: low sensitivity; −: no effect; details: 24 h
Fusarium graminearum = format: cell-based; design: key: +++: high sensitivity, no hyphal growth; ++: medium sensitivity; +: low sensitivity; −: no effect; details: 24 h
Candida albicans = assay: Antifungal activity in 96-well microtiter plates; format: cell-based; design: key: +++: high sensitivity, no hyphal growth; ++: medium sensitivity; +: low sensitivity; −: no effect; details: 24 h
Aspergillus flavus = assay: Antifungal activity in 96-well microtiter plates; format: cell-based; design: key: +++: high sensitivity, no hyphal growth; ++: medium sensitivity; +: low sensitivity; −: no effect; details: 24 h
[2] = tested on: Sinorhizobium meliloti AK631; assay: CFU determination of Sinorhizobium meliloti; details: for CFU % / CFU (colony/ml): 1 hr; for CFU determination (colony formation): 3 hours, 2-3×10^6 bacteria, FIG. 2B; for CFU: Sinorhizobium meliloti (AK631), untreated 10^7; for eradication of the bacteria: from the low dose of 20 μg/ml
Staphylococcus aureus [3] = assay: CFU determination, broad spectrum activity; format: cell-based; details: 50 μg/ml, untreated 10^6
Xanthomonas 2880 [4] = assay: PI staining, broad spectrum activity; format: cell-based; details: 50 μg/ml
[5] = tested on: Curtobacterium, flaccumfaciens; assay: PI staining, broad spectrum activity; format: cell-based; details: 50 μg/ml
[6] = tested on: Sinorhizobium meliloti AK631; assay: PI staining of Sinorhizobium meliloti; details: 50 μg/ml; for PI: Sinorhizobium meliloti (AK631)
Bacillus subtilis [7] = assay: PI staining, broad spectrum activity; format: cell-based; details: 50 μg/ml
Bacillus subtilis [8] = assay: CFU determination, broad spectrum activity; format: cell-based; details: 50 μg/ml, untreated 10^6
Clavibacter michigense [9] = assay: CFU determination, broad spectrum activity; format: cell-based; details: 50 μg/ml, untreated 10^9
[10] = tested on: Pseudomonas syringae pv tomato DC3000; assay: PI staining, broad spectrum activity; format: cell-based; details: 50 μg/ml
Xanthomonas 2880 [11] = assay: CFU determination, broad spectrum activity; format: cell-based; details: 50 μg/ml, Xanthomonas 2880, untreated 10^7
Clavibacter michigense [12] = assay: PI staining, broad spectrum activity; format: cell-based; details: 50 μg/ml
[13] = tested on: Pseudomonas syringae pv tomato DC3000; assay: CFU determination, broad spectrum activity; format: cell-based; details: 50 μg/ml, Pseudomonas syringae pv tomato DC3000, untreated 10^7
[14] = tested on: Curtobacterium, flaccumfaciens; assay: CFU determination, broad spectrum activity; format: cell-based; details: 50 μg/ml, untreated 10^9
Staphylococcus aureus [15] = assay: PI staining, broad spectrum activity; format: cell-based; details: 50 μg/ml

C[C@@H]1[C@H](O)[C@@H](C)/C=C/C=C/C=C/C=C/C=C/C=C/C=C/[C@H](O[C@@H]2O[C@H](C)[C@@H](O)[C@H](N)[C@@H]2O)C[C@@H]2O[C@](O)(C[C@@H](O)C[C@@H](O)[C@H](O)CC[C@@H](O)C[C@@H](O)CC(=O)O[C@H]1C)C[C@H](O)[C@H]2C(=O)O [AMB, Amfotericin B, reference compound] was tested, and the “Fungal (hyphal) growth, sensitivity” value ([1]; 125 μg/ml) was “+++”, the “Fungal (hyphal) growth, sensitivity” value (Candida parapsilosis; 125 μg/ml) was “+++” and the “Fungal (hyphal) growth, sensitivity” value (Candida crusei; 125 μg/ml) was “+++”. For the same molecule, the “Fungal (hyphal) growth, sensitivity” value (Aspergillus niger; 125 μg/ml) was “+++”, the “Fungal (hyphal) growth, sensitivity” value (Fusarium graminearum; 125 μg/ml) was “++” and the “Fungal (hyphal) growth, sensitivity” value (Candida albicans; 125 μg/ml) was “+++”. The “Fungal (hyphal) growth, sensitivity” value (Aspergillus flavus; 125 μg/ml) was “+++”.
“NCR224: anionic NCR peptide (KDLPFNICEKDEDCLEFCAHDKVAKCMLNICFCF; Peptide derived from Medicago truncatula)” was tested, and the CFU % ([2]; 20 μg/ml) was 130%, the “CFU (colony/ml)” value ([2]; 20 μg/ml) was 52900000 colony/ml and the CFU % ([2]; 50 μg/ml) was 48%. The “CFU (colony/ml)” value ([2]; 50 μg/ml) was 19600000 colony/ml and the “CFU determination (colony formation)” value ([2]; 50 μg/ml) was “reduced growth capacity”.
For “NCR035: cationic NCR peptide (SFLGTFISSCKRDKDCPKLYGANFRCRKGTCVPPI; Peptide derived from Medicago truncatula)”, the CFU (Staphylococcus aureus [3]) was “CFU: 10^6”, the PI (Xanthomonas 2880 [4]) was “PI: 100%” and the “Fungal (hyphal) growth, sensitivity” value ([1]; 25 μg/ml) was “−”. For the same molecule, the “Fungal (hyphal) growth, sensitivity” value ([1]; 50 μg/ml) was “+”, the “Fungal (hyphal) growth, sensitivity” value ([1]; 100 μg/ml) was “++” and the “Fungal (hyphal) growth, sensitivity” value (Candida parapsilosis; 25 μg/ml) was “+”. The “Fungal (hyphal) growth, sensitivity” value (Candida parapsilosis; 50 μg/ml) was “++”, the “Fungal (hyphal) growth, sensitivity” value (Candida parapsilosis; 100 μg/ml) was “++” and the PI [5] was “PI: 78%”. For the same molecule, the “PI staining (PI uptake)” value ([6]; FIG. 2A, listed as NCR35) was “provoked PI uptake; also recorded: comparable to heat killed bacteria or bacteria treated with polymyxin B”, the PI [6] was “PI: 90%” and the PI (Bacillus subtilis [7]) was “PI: 100%”. The CFU (Bacillus subtilis [8]) was “CFU: 10^3”, the “Fungal (hyphal) growth, sensitivity” value (Candida crusei; 25 μg/ml) was “+” and the “Fungal (hyphal) growth, sensitivity” value (Candida crusei; 50 μg/ml) was “++”. The “Fungal (hyphal) growth, sensitivity” value (Candida crusei; 100 μg/ml) was “++”, the CFU (Clavibacter michigense [9]) was “CFU: 10^4” and the “Fungal (hyphal) growth, sensitivity” value (Aspergillus niger; 25 μg/ml) was “−”. For the same molecule, the “Fungal (hyphal) growth, sensitivity” value (Aspergillus niger; 50 μg/ml) was “−”, the “Fungal (hyphal) growth, sensitivity” value (Aspergillus niger; 100 μg/ml) was “+” and the PI [10] was “PI: 100%”. For the same molecule, the “Fungal (hyphal) growth, sensitivity” value (Fusarium graminearum; 25 μg/ml) was “−”, the “Fungal (hyphal) growth, sensitivity” value (Fusarium graminearum; 50 μg/ml) was “+” and the “Fungal (hyphal) growth, sensitivity” value (Fusarium graminearum; 100 μg/ml) was “++”. The CFU (Xanthomonas 2880 [11]) was “CFU: 10^2”, the PI (Clavibacter michigense [12]) was “PI: 110%” and the “Fungal (hyphal) growth, sensitivity” value (Candida albicans; 25 μg/ml) was “+”. The “Fungal (hyphal) growth, sensitivity” value (Candida albicans; 50 μg/ml) was “++”, the “Fungal (hyphal) growth, sensitivity” value (Candida albicans; 100 μg/ml) was “++” and the CFU [13] was “CFU: 10^7”. For the same molecule, the CFU [14] was “CFU: 10^5”, the “Fungal (hyphal) growth, sensitivity” value (Aspergillus flavus; 25 μg/ml) was “−” and the “Fungal (hyphal) growth, sensitivity” value (Aspergillus flavus; 50 μg/ml) was “+”. For the same molecule, the “Fungal (hyphal) growth, sensitivity” value (Aspergillus flavus; 100 μg/ml) was “++”, the PI (Staphylococcus aureus [15]) was “PI: 100%” and the CFU % ([2]; 20 μg/ml) was 0%. The “CFU (colony/ml)” value ([2]; 20 μg/ml) was 21000 colony/ml, the CFU % ([2]; 50 μg/ml) was 0% and the “CFU (colony/ml)” value ([2]; 50 μg/ml) was 0 colony/ml. For the same molecule, the “CFU determination (colony formation)” value ([2]; 50 μg/ml) was “none formed colony”, the CFU ([2]; 50 μg/ml) was “CFU: 0” and the “eradication of the bacteria” value [2] was “able to eradicate the bacteria in less than an hour”.
“NCR057: cationic NCR peptide (RPVSCKDHYDCRRKVKIVGCIFPQEKPMCINSMCTCIREIVP; Peptide derived from Medicago truncatula)” was tested, and the CFU (Staphylococcus aureus [3]) was “CFU: 10^6”, the PI (Xanthomonas 2880 [4]) was “PI: 65%” and the PI [5] was “PI: 60%”. The PI [6] was “PI: 35%”, the CFU (Bacillus subtilis [8]) was “CFU: 10^6” and the PI [10] was “PI: 50%”. For the same molecule, the PI (Clavibacter michigense [12]) was “PI: 70%”, the CFU [13] was “CFU: 10^6” and the CFU [14] was “CFU: 0”. For the same molecule, the PI (Staphylococcus aureus [15]) was “PI: 47%”, the CFU % ([2]; 20 μg/ml) was 148% and the “CFU (colony/ml)” value ([2]; 20 μg/ml) was 9800000 colony/ml. The CFU % ([2]; 50 μg/ml) was 68%, the “CFU (colony/ml)” value ([2]; 50 μg/ml) was 4500000 colony/ml and the “CFU determination (colony formation)” value ([2]; 50 μg/ml) was “reduced growth capacity”. For the same molecule, the CFU ([2]; 50 μg/ml) was “CFU: 10^6” and the “eradication of the bacteria” value [2] was “able to eradicate the bacteria in less than an hour”.
